# Measured values: patent publication US9637469B2, “Pyridine derivative” (Teijin Pharma Limited, priority 2012, dated 2017)
# What was measured:
# Cebus apella = experiment: Test for drug efficacy in Cebus apella (uric acid excretion rate); assay type: in vivo; conditions: 3 mg/kg to 30 mg/kg in 0.5% methylcellulose into stomach via the nasal cavity, up to 24 hours
# Protocol: A test compound (3 mg/kg to 30 mg/kg) prepared by suspending in a 0.5% methylcellulose solution was administered to Cebus apella into stomach via the nasal cavity using a disposable catheter and a syringe barrel. Blood samples were taken before administration and 30 minutes, 1 hour, 2 hours, 4 hours, 8 hours, 12 hours, and 24 hours after administration; and urine samples were collected for the time intervals of immediately to 4 hours after administration, from 4 hours to 8 hours after administration, from 8 hours to 16 hours after administration, and from 16 hours to 24 hours after administration. Concentrations of uric acid and creatinine in the blood and urine samples collected were measured by an automatic analyzer (JEOL Ltd.). Uric acid and creatine were measured using L-type Wako UA.F (Wako Pure Chemicals Industries, Ltd.) and L-type Creatine F (Wako Pure Chemicals Industries, Ltd.) respectively. Uric acid clearance was calculated from the uric acid concentrations in blood and urine and, similarly, creatinine clearance was calculated from the creatinine concentrations.
# human URAT1 = molecular target: T1, human URAT1 (Homo sapiens, UniProt Q96S37); experiment: Test for inhibition of uric acid transport using human URAT1-expressing cells;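 also: three stars up to 0.2 µM two stars 0.2-2 µM one star 2-20 µM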; assay type: cell-based; conditions: HEK 293 cells expressing human URAT1; 14C-labeled uric acid 25 μM; uptake 37° C. for 5 min
# T1 construct: Full-length cDNA of human URAT1 (hURAT1)
# T1 sequence (Q96S37 1-553): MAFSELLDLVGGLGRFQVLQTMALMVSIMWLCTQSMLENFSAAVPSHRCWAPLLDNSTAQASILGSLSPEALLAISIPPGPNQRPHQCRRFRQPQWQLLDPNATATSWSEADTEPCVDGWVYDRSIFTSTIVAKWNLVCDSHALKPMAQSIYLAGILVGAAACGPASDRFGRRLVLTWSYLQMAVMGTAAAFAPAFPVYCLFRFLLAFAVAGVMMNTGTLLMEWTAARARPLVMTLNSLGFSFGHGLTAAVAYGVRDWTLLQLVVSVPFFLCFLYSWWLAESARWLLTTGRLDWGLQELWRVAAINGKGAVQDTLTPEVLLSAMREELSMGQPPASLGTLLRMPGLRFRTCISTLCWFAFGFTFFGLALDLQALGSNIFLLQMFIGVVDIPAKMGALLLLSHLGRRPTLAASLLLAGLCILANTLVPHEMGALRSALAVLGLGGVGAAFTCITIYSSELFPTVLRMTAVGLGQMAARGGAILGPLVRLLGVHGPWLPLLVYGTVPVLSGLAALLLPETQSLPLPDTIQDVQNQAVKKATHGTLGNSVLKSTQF
# How it was run: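 IC50 values reflect inhibition of ¹⁴C-uric acid uptake (25 μM final, 5 min, 37 °C) by compound. Cells were HEK293 stably expressing full-length human URAT1, preincubated in Na-gluconate-substituted HBSS. Radioactivity in lysates was expressed relative to DMSO control as 100%.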
Structure (SMILES),Inhibitory Activity (IC50 of uric acid transport inhibition) (human URAT1),uricosuric effect (uric acid excretion rate) (Cebus apella)
"CC(C)c1nc(-c2cccnc2)n(Cc2cc(Cl)ccc2Cl)c1C(=O)O [Compound A26, 1-(2,5-dichlorobenzyl)-4-isopropyl-2-(pyridin-3-yl)-1H-imidazole-5-carboxylic acid]",* * *,excellent uricosuric effect was confirmed
"Cc1nc(-c2cccnc2)n(Cc2cccc3ccsc23)c1C(=O)O [Compound A81, 1-(benzo[b]thiophen-7-ylmethyl)-4-methyl-2-(pyridin-3-yl)-1H-imidazole-5-carboxylic acid]",* *,excellent uricosuric effect was confirmed
"Cc1nc(-c2cncc(F)c2)n(Cc2cccc3ccccc23)c1C(=O)O [Compound A119, 2-(5-fluoropyridin-3-yl)-4-methyl-1-(naphthalen-1-ylmethyl)-1H-imidazole-5-carboxylic acid]",* *,excellent uricosuric effect was confirmed
"Cc1nc(-c2cncc(Cl)c2)n(Cc2cccc3ccccc23)c1C(=O)O [Compound A121, 2-(5-chloropyridin-3-yl)-4-methyl-1-(naphthalen-1-ylmethyl)-1H-imidazole-5-carboxylic acid]",* *,excellent uricosuric effect was confirmed
"Cc1nc(-c2cncc(F)c2)n(Cc2cc(Cl)ccc2Cl)c1C(=O)O [Compound A134, 1-(2,5-dichlorobenzyl)-2-(5-fluoropyridin-3-yl)-4-methyl-1H-imidazole-5-carboxylic acid]",* * *,excellent uricosuric effect was confirmed
"Cc1nc(-c2cncc(Cl)c2)n(Cc2cc(Cl)ccc2Cl)c1C(=O)O [Compound A135, 2-(5-chloropyridin-3-yl)-1-(2,5-dichlorobenzyl)-4-methyl-1H-imidazole-5-carboxylic acid]",* * *,excellent uricosuric effect was confirmed
"O=C(O)c1c(C(F)(F)F)nc(-c2cncc(Cl)c2)n1Cc1cc(Cl)ccc1Cl [Compound A137, 2-(5-chloropyridin-3-yl)-1-(2,5-dichlorobenzyl)-4-(trifluoromethyl)-1H-imidazole-5-carboxylic acid]",* * *,excellent uricosuric effect was confirmed
"Cc1nc(-c2cncc(C(F)(F)F)c2)n(Cc2cc(Cl)ccc2Cl)c1C(=O)O [Compound A139, 1-(2,5-dichlorobenzyl)-4-methyl-2-(5-(trifluoromethyl)pyridin-3-yl)-1H-imidazole-5-carboxylic acid]",* * *,excellent uricosuric effect was confirmed

# Continued, in another order:
Inhibitory Activity (IC50 of uric acid transport inhibition) (human URAT1),Structure (SMILES),uricosuric effect (uric acid excretion rate) (Cebus apella)
* * *,"O=C(O)c1c(C2CC2)nc(-c2cncc(Cl)c2)n1Cc1cc(Cl)ccc1Cl [Compound A147, 2-(5-chloropyridin-3-yl)-4-cyclopropyl-1-(2,5-dichlorobenzyl)-1H-imidazole-5-carboxylic acid]",excellent uricosuric effect was confirmed
* * *,"Cc1cncc(-c2nc(C)c(C(=O)O)n2Cc2cc(Cl)ccc2Cl)c1 [Compound A156, 1-(2,5-dichlorobenzyl)-4-methyl-2-(5-methylpyridin-3-yl)-1H-imidazole-5-carboxylic acid]",excellent uricosuric effect was confirmed
* * *,"O=C(O)c1cnc(-c2cncc(Cl)c2)n1Cc1cc(Cl)ccc1Cl [Compound A169, 2-(5-chloropyridin-3-yl)-1-(2,5-dichlorobenzyl)-1H-imidazole-5-carboxylic acid]",excellent uricosuric effect was confirmed
* * *,"Cc1nc(-c2cncc(Cl)c2)n(Cc2cccc3ccsc23)c1C(=O)O [Compound A233, 1-(benzo[b]thiophen-7-ylmethyl)-2-(5-chloropyridin-3-yl)-4-methyl-1H-imidazole-5-carboxylic acid]",excellent uricosuric effect was confirmed
* * *,"O=C(O)c1ccc(-c2cccnc2)n1Cc1cccc2ccccc12 [Compound B1, 1-(naphthalen-1-ylmethyl)-2-(pyridin-3-yl)-1H-pyrrole-5-carboxylic acid]",excellent uricosuric effect was confirmed
* * *,"O=C(O)c1ccc(-c2cccnc2)n1Cc1cc(Cl)ccc1Cl [Compound B11, 1-(2,5-dichlorobenzyl)-2-(pyridin-3-yl)-1H-pyrrole-5-carboxylic acid]",excellent uricosuric effect was confirmed
